The source of these data is patent publication US11568956B2, “Methods for identifying inhibitors of amyloid protein aggregation” (Treventis Corporation, priority 2008, dated 2023).

Aβ, sequence (P05067 672-711 limits assumed): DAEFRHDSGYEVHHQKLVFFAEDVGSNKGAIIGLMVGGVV
T1 sequence (P05067 672-711 limits assumed): as above

One test addresses T1, Aβ 1-40 (Homo sapiens, UniProt P05067).
T1 construct: ThT aggregation assays of Aβ 1-40 and alpha synuclein
In words: ThT aggregation assay of Aβ 1-40. The format is biochemical.
Settings: not given
The procedure:
The anti-amyloid activity of these compounds was evaluated by ThT aggregation assays of Aβ 1-40 and alpha synuclein, as set forth below. The column “A-Syn” below is a functional ThT aggregation assay of alpha synuclein.
As to `COc1ccc2cc(C(C)N)ccc2c1` (centres unmarked), the half-maximal inhibitory concentration (IC50) was above 100 µM.

For `COc1ccc(N(C)S(=O)(=O)c2ccc(NS(=O)(=O)c3cccs3)cc2)c(OC)c1`, the IC50 is above 20 µM.

`O=C(COc1ccccc1)Nc1ccc2c(c1)C(=O)NC2=O` returned an IC50 above 20 µM.

The compound `COc1ccc2ccccc2c1/C=N/c1ccc(S(N)(=O)=O)cc1` registered an IC50 above 20 µM.

Take `O=[N+]([O-])c1ccc(N2CCCCC2)cc1Nc1ccccc1`: the “Aβ - ThT (IC50/μM)” value was “INACTIVE”.

Compound `COc1ccc(C2(C(=O)Nc3ccc(S(=O)(=O)Nc4ncccn4)cc3)CCCC2)cc1OC` yielded an IC50 above 50 µM.

As for `COc1ccc(NS(=O)(=O)c2ccc(NS(=O)(=O)c3cccs3)cc2)c(OC)c1`, the IC50 was above 50 µM.

`CC1=NNC(=O)C1CC(=O)N/N=C/c1cccc(OCc2ccccc2)c1` (centres unmarked) had an IC50 above 20 µM.

Compound `COc1ccc(NS(=O)(=O)c2ccc(NS(=O)(=O)c3ccc(Br)s3)cc2)c(OC)c1` had an IC50 above 50 µM.

`c1ccc2c(c1)CCCC2NCc1ccncc1` (centres unmarked) displayed an IC50 above 100 µM.

For the compound `COc1ccccc1N1CCN(C(=O)CN(c2ccc(F)cc2)S(=O)(=O)c2ccccc2)CC1`, the IC50 is above 20 µM.

Turning to `O=C(CNC(=O)c1ccccc1)N/N=C/c1c[nH]nc1-c1ccccc1`, the IC50 is above 20 µM.

As to `Cc1sc(/C=N/NC(=O)c2cccc([N+](=O)[O-])c2)cc1[N+](=O)[O-]`, the 50% inhibitory concentration (IC50) was above 20 µM.

`COc1ccccc1NC(=O)C1CC(O)CN1C(=O)OCc1ccccc1` (centres unmarked) returned an IC50 above 20 µM.

The compound `COc1ccc(CC(=O)Nc2ccc(S(=O)(=O)Nc3nc(C)cc(C)n3)cc2)cc1` returned an IC50 above 50 µM.

For `COc1ccc(CNCc2ccc(F)cc2)cc1OC`, the IC50 was above 100 µM.

In turn, `CCOC(=O)c1c(NC(=O)c2cccc([N+](=O)[O-])c2C)sc2c1CCC2` had an IC50 above 20 µM.

Compound `Cc1ccc(N(C)C(=O)C2CC(O)CN2C(=O)OCC(C)C)cc1C` (centres unmarked) displayed an IC50 above 20 µM.

As for `CC(C)(O)C#Cc1ccc(C(=O)N2CCN(c3ncccn3)CC2)cc1`, the IC50 was above 20 µM.

A further test has as its target Aβ (Homo sapiens, UniProt P05067).
Assay: not given
The conditions noted are these: unit not in the table, μM; Masuda test set; read-out: Expt (IC50); cited from earlier work.
For the compound `C[C@@H]1[C@H](O)[C@@H](C)/C=C/C=C/C=C/C=C/C=C/C=C/C=C/[C@H](O[C@@H]2O[C@H](C)[C@@H](O)[C@H](N)[C@@H]2O)C[C@@H]2O[C@](O)(C[C@@H](O)C[C@@H](O)[C@H](O)CC[C@@H](O)C[C@@H](O)CC(=O)O[C@H]1C)C[C@H](O)[C@H]2C(=O)O` [amphotericin B], the IC50 was 2.2 µM.

As to `C[C@H](CCC(=O)NCCS(=O)(=O)O)[C@H]1CC[C@H]2[C@@H]3CC[C@@H]4C[C@H](O)CC[C@]4(C)[C@H]3CC[C@]12C` [taurolithocholic acid], the IC50 is above 40 µM.

As to `O=C(/C=C/c1ccc(O)c(O)c1)O[C@H](Cc1ccc(O)c(O)c1)C(=O)O` [rosmarinic acid], the IC50 is 12 µM.

Turning to `O=C(c1cc(O)c(O)c(O)c1)c1ccc(O)c(O)c1O` [exifone], the IC50 was 0.7 µM.

On to `O=C(c1ccc(O)cc1)c1ccc(O)cc1` [4,4′-dihydroxybenzophenone], for which the IC50 is above 40 µM.

Take `CN(C)c1ccc2nc3ccc(=[N+](C)C)cc-3sc2c1` [methylene blue]: the IC50 is 2.3 µM.

With theaflavone, the IC50 is 2 µM.

For `O=S(=O)(O)c1ccc2c(N=Nc3ccc(N=Nc4ccccc4)cc3)c(O)c(S(=O)(=O)O)cc2c1` [Ponceau SS], the IC50 is 1.2 µM.

Take `CCN(CCO)c1ccc(/N=N/c2sc3cc(OC)ccc3[n+]2C)cc1` [basic blue 41]: the IC50 was 1.4 µM.

With `CCCCC[C@H](O)CC(=O)CCc1ccc(O)c(OC)c1` [gingerol], the half-inhibitory concentration (IC50) was 25 µM.

In the case of `O=c1cc2oc3cc(O)c(-c4ccc(O)cc4O)cc3nc-2cc1-c1ccc(O)cc1O` [lacmoid], the IC50 is 1.4 µM.

Regarding `OCCN1CCN(CCCN2c3ccccc3Sc3ccc(Cl)cc32)CC1` [perphenazine], the IC50 was above 40 µM.

On to `C=CCc1ccc(O)c(-c2cc(CC=C)ccc2O)c1` [magnolol], for which the IC50 is above 40 µM.

Regarding `C[C@H](CCC(=O)NCCS(=O)(=O)O)[C@H]1CC[C@H]2[C@@H]3[C@H](O)C[C@@H]4C[C@H](O)CC[C@]4(C)[C@H]3CC[C@]12C` [laurochenodeoxycholic acid], the IC50 is above 40 µM.

As to `C[C@@H]1C(=O)O[C@H]2C[C@@]34[C@H]5C[C@@H](C(C)(C)C)[C@]36[C@@H](OC(=O)[C@@H]6O)O[C@@]4(C(=O)O5)[C@]21O` [ginkgolide A], the IC50 is above 40 µM.

For the compound `C[C@@H]1O[C@@H](OC[C@H]2O[C@@H](Oc3c(-c4ccc(O)c(O)c4)oc4cc(O)cc(O)c4c3=O)[C@H](O)[C@@H](O)[C@@H]2O)[C@H](O)[C@H](O)[C@H]1O` [rutin], the IC50 is 32 µM.

Take `O=c1cc(-c2ccc(O)cc2)oc2cc(O)cc(O)c12` [Apigenin]: the IC50 is above 40 µM.

For the compound tocopherol, the IC50 was above 40 µM.

Turning to `C[C@H]1[C@H](C)CC[C@]2(C(=O)O)CC[C@]3(C)C(=CC[C@@H]4[C@@]5(C)C[C@@H](O)[C@H](O)[C@@](C)(CO)[C@@H]5CC[C@]43C)[C@H]12` [asiatic acid], the IC50 was above 40 µM.

Usually IC50 stands for the concentration at which inhibition is half-maximal.
